Test: relative thermodynamic stability of solid forms of Compound I as a function of water activity
Assay type: physicochemical
Conditions: from about 0 to 0.5 or 0.6 water activity at room temperature

O=C(CCc1c(-c2ccc(F)cc2)[nH]c2ccccc12)N[C@@H]1C(=O)NC[C@H]1O [Compound 1 Form B]
thermodynamic stability relative to other forms of the compound: most thermodynamically stable form
